For data set [1], the system named is Agrobacterium tumefaciens. The experiment in a line: Antitumor activity assessed as inhibition of Agrobacterium tumefaciens-induced tumor formation by potato disk assay. It is filed as functional.
A short description of data set [2]: Cytotoxicity against human 9KB cells. It is filed as functional. As to conditions: for EC50: Homo sapiens, 9KB, read-out: ED50 (the source's name).
Data set [3] relates to MCF7. Nature of the data set: Cytotoxicity against human MCF7 cells. It is filed as functional. As to conditions: for EC50: Homo sapiens, MCF7, read-out: ED50 (the source's name).
The subject of data set [4] is HT-29. The experiment in a line: Cytotoxicity against human HT-29 cells. As to conditions: for EC50: Homo sapiens, HT-29, read-out: ED50 (the source's name). Type of data set: functional.
Data set [5] concerns A549. The experiment in a line: Cytotoxicity against human A549 cells. Type of data set: functional. To be noted: for EC50: Homo sapiens, A549, read-out: ED50 (the source's name).
The subject of data set [6] is Artemia. The experiment in a line: Toxicity against brine shrimp. Type of data set: organism-based. As to conditions: in vivo.
Data set [7] in a line: Cytotoxicity against mouse 9PS cells. It is filed as functional. As to conditions: for EC50: Mus musculus, read-out: ED50 (the source's name).
A short description of data set [8]: Antimitotic activity in rat 9ASK cells assessed as reversal of astrocyte formation at 10 ug/mL. Type of data set: functional.
Data set [9] deals with L1210. Nature of the data set: In vivo antitumor activity against mouse L1210 cells at 0.4 mg/kg relative to control. Type of data set: functional.
The subject of data set [10] is L1210. The experiment in a line: Cytotoxicity against mouse L1210 cells. As to conditions: read-out: ED50 (the source's name). It is filed as functional.
The nature of data set [11]: (§1) In vivo antitumor activity against mouse 3PS cells at 0.95 mg/kg relative to control. It is filed as functional.
For data set [12], the system named is Calliphora vicina. The experiment in a line: Pesticidal activity against Blowfly larvae assessed as mortality at 1% drug concentration. Type of data set: functional.
The nature of data set [13]: as §1. Type of data set: functional. The source holds these as a separate data set.
Data set [14] concerns Plasmodium falciparum. Nature of the data set: Antiplasmodial activity against chloroquine-sensitive Plasmodium falciparum D6. It is filed as functional, organism-based.
Data set [15] relates to Aedes aegypti. Nature of the data set: Pesticidal activity against Aedes aegypti larvae assessed as mortality at 10 ppm. Type of data set: functional.
Data set [16] deals with Plasmodium falciparum. The experiment in a line: Antiplasmodial activity against chloroquine-sensitive Plasmodium falciparum W2. Type of data set: functional, organism-based.
Data set [17] in a line: Antimitotic activity in rat 9ASK cells assessed as reversal of astrocyte formation. It is filed as functional.
Data set [18] in a line: Antimitotic activity in rat 9ASK cells assessed as reversal of astrocyte formation at 100 ug/mL. Type of data set: functional.
Data set [19] has as its system Calliphora vicina. The experiment in a line: Pesticidal activity against Blowfly larvae assessed as mortality at 10000 ppm. Type of data set: functional.
Data set [20] in a line: In vivo antitumor activity against mouse 3PS cells at 1.4 mg/kg relative to control. It is filed as functional.
Data set [21] in a line: In vivo antitumor activity against mouse 3PS cells at 0.25 mg/kg relative to control. It is filed as functional.

≈ marks a conversion by molar mass, not a printed value.

Regarding `CCCCCCCCCC[C@H](O)[C@H]1CC[C@H]([C@H](O)CC[C@H](O)[C@@H]2CC[C@@H](CCCCCCC[C@@H](O)CC3=C[C@H](C)OC3=O)O2)O1` [BULLATALICIN], in data set [1], the “inhibition (INH)” value was 63%. In addition, the EC50 in [2] was over 10 µg/mL; in data set [3], 2.34 µg/mL (≈ 3.66 µM). In addition, the ED50 in [4] is reported as 8.8 ×10⁻⁶ ug/ml; in data set [5], 2.34 ×10⁻⁷ ug/ml. Besides, the LC50 in data set [6] was found to be 0.154 ppm.

In [2], `CCCC(O)CCC(O)CCC(O)C1CCC(C2CCC(C(O)CCCCCCCCCCCCCC3CC(C)OC3=O)O2)O1` (stereo not given) [DIHYDROCHERIMOLINE] came in with an ED50 of 2 ×10⁻⁸ ug/ml. Also, the EC50 in data set [4] was 0.001 µg/mL (≈ 0.00156 µM); in data set [5], 0.001 µg/mL (≈ 0.00156 µM); in [7], under 0.01 µg/mL. For the same compound, the LC50 in [6] is 4.02 ppm.

Consider `CCCCCCC(O)CCCC(O)C1CCC(C2CCC(C(O)CCCCCCCCCCCCC3=CC(C)OC3=O)O2)O1` (stereo not given) [ISOROLLINICIN], for which the EC50 in data set [7] is 0.01 µg/mL (≈ 0.0161 µM).

`CCCC(O)CCC(O)CCC(O)C1CCC(C2CCC(C(O)CCCCCCCCCCCCCC3=CC(C)OC3=O)O2)O1` (stereo not given) [CHERIMOLINE] gave an ED50 in data set [2] of 6 ×10⁻¹² ug/ml. Moreover, the figures for the EC50 in data set [4], in data set [5] and in data set [7] were over 0.001 µg/mL, 0.001 µg/mL (≈ 0.00157 µM) and under 0.01 µg/mL, respectively. The LC50 in data set [6] is given as 1.24 ppm.

Consider `CCCCCCCCCC[C@@H](O)[C@@H]1CC[C@H]([C@H](O)CC[C@H](O)[C@@H]2CC[C@@H](CCCCCCC[C@@H](O)CC3=C[C@H](C)OC3=O)O2)O1` [SYLVATICIN], for which the EC50 in [2], in data set [4] and in [5] was under 0.001 µg/mL each time. In [6], the LC50 is reported as 26 ppm.

As to `CCCCCCCCCCCC[C@@H](O)[C@H]1CC[C@H]([C@H](O)CC[C@H](O)[C@@H]2CC[C@@H](CCCCC[C@@H](O)CC3=C[C@H](C)OC3=O)O2)O1` [GIGANTECIN], in data set [1], the “inhibition (INH)” value is given as 83%. Moreover, the ED50 in data set [2] is recorded as under 1 ×10⁻⁵ ug/ml; in data set [3], 4.11 ×10⁻⁹ ug/ml; in data set [4], 2.68 ×10⁻⁴ ug/ml; in data set [5] it was 2.19 ×10⁻⁷ ug/ml; in data set [7], under 1 ×10⁻⁵ ug/ml. The compound further gave an LC50 in data set [6] of 222 ppm. Also, in data set [8], the Activity came out at 31%.

For `CCCCCCCCCC[C@H](O)[C@H]1CC[C@H]([C@H]2CC[C@H]([C@H](O)CCCCCCCCCC[C@@H]3CC(CC(C)=O)C(=O)O3)O2)O1` (stereo not given in full) [BULLATACINONE], the “inhibition (INH)” value in [1] was determined as 15%. The T/C in [9] was found to be 144%. The compound also gave an LC50 in data set [6] of 0.003 ppm.

As to `CCCCCC[C@H](O)CCC[C@H](O)[C@H]1CC[C@H]([C@H]2CC[C@H]([C@H](O)CCCCCCCCCCCCC3=C[C@H](C)OC3=O)O2)O1` [SQUAMOCIN], in data set [10], the EC50 amounted to 0.58 µg/mL (≈ 0.931 µM).

In the case of `CCCCCCCCCCCC[C@H](O)[C@@H]1CC[C@@H]([C@@H](O)CCCCC(O)CCCCCC2CC(CC(C)=O)C(=O)O2)O1` (stereo not given in full) [ISOANNONACIN], the EC50 in data set [4] is 0.002 µg/mL (≈ 0.00335 µM); in data set [5], 0.02 µg/mL (≈ 0.0335 µM); in data set [7], 3 µg/mL (≈ 5.03 µM).

With `CCCCCCCCCCCC[C@@H](O)[C@H]1CC[C@H]([C@H](O)CCCC[C@H](O)CCCCC[C@@H](O)CC2=CC(C)OC2=O)O1` (stereo not given in full) [ANNONACIN], the T/C in data set [11] and in [13] was 124% each time. Also, the “inhibition (INH)” value in [1] turned out to be 72%. Further, the EC50 stood at 0.001 µg/mL (≈ 0.00168 µM) in data set [2], 3 µg/mL (≈ 5.03 µM) in data set [4] and 0.001 µg/mL (≈ 0.00168 µM) in data set [5]. Besides, the Activity in data set [12] is on record as 100%; in data set [15], 70%; in [17] it was 51%; in data set [18], 15%; in [19], 100%. The IC50 in data set [14] was 1.3 µg/mL (≈ 2.18 µM); in [16], 1.51 µg/mL (≈ 2.53 µM). Besides, the IC90 in [14] is 12.4 µg/mL (≈ 20.9 µM); in [16], 74.7 µg/mL (≈ 125 µM). In [7], this compound had an ED50 of 1 ×10⁻⁵ ug/ml. Moreover, the LC50 in data set [6] was determined as 3.3 ppm.

Take `CCCCCCCCCCCCCC[C@@H](O)[C@H]1CC[C@H]([C@H](O)CC[C@H](O)CCCCC[C@@H](O)CC2=C[C@H](C)OC2=O)O1` [GONIOTHALAMICIN]: the “inhibition (INH)” value in data set [1] is 68%. Moreover, the EC50 is under 0.01 µg/mL in data set [2] and under 0.1 µg/mL in [7]. Besides, the IC50 came to 1.08 µg/mL (≈ 1.82 µM) in data set [14] and 1.59 µg/mL (≈ 2.66 µM) in data set [16]. The IC90 is 8.23 µg/mL (≈ 13.8 µM) in [14] and 23.6 µg/mL (≈ 39.6 µM) in data set [16]. Further, the Activity in [15] and in data set [19] was 100% throughout. In data set [6], the LC50 worked out at 37 ppm.

`CCCCCCCCCCCC[C@H](O)[C@@H]1CC[C@@H]([C@@H](O)CCCCC(=O)CCCCCC2CC(CC(C)=O)C(=O)O2)O1` (stereo not given in full) [ISOANNONACINONE]: the EC50 in data set [4] came to 0.009 µg/mL (≈ 0.0151 µM); in data set [5], 0.07 µg/mL (≈ 0.118 µM); in data set [7], 0.5 µg/mL (≈ 0.841 µM).

Regarding `CCCCCCCCCC[C@H](OC(C)=O)[C@H]1CC[C@H]([C@H]2CC[C@H]([C@H](O)CCCCCCCCCCCCC3=C[C@H](C)OC3=O)O2)O1` [UVARICIN], the T/C in [20] was found to be 157%.

On to `CCCCCCCCC[C@@H](OC(C)=O)[C@H](OC(C)=O)[C@@H]1CC[C@@H]([C@@H]2CC[C@@H]([C@@H](CCCCCCCCCCCCC3=CC(C)OC3=O)OC(C)=O)O2)O1` (stereo not given in full) [ROLLINICIN TRIACETATE], for which, in data set [7], the ED50 was determined as 2.6 ×10⁻⁴ ug/ml.

Turning to `CN(C)[C@@H]1C(O)=C(C(N)=O)C(=O)[C@@]2(O)C(O)=C3C(=O)c4c(O)cccc4[C@@](C)(O)[C@H]3C[C@@H]12` [TETRACYCLINE], the figures for the IC50 in [14] and in data set [16] were 3.36 µg/mL (≈ 7.57 µM) and 5.39 µg/mL (≈ 12.1 µM), respectively.

With `CCCCCCCCCC[C@@H](OC(C)=O)[C@H]1CC[C@H]([C@@H](CC[C@@H](OC(C)=O)[C@@H]2CCC(CCCCCCC[C@@H](CC3=C[C@@H](C)OC3=O)OC(C)=O)O2)OC(C)=O)O1` (stereo not given in full) [BULLATALICIN TETRAACETATE], the EC50 in data set [3] was under 0.001 µg/mL; in data set [4], 1.35 µg/mL (≈ 1.67 µM); in data set [5], under 0.001 µg/mL.

In data set [6], `CCCCCCCCCCCC[C@H](O)[C@@H]1CC[C@@H]([C@@H](O)CCCCCC(=O)CCCCC2CC(CC(C)=O)C(=O)O2)O1` (stereo not given in full) [SQUAMONE] registered an LC50 of 2.1 ppm.

Take `CCCCCCCCCCCC[C@@H](O)[C@H]1CC[C@H]([C@H](O)CCCCC(=O)CCCCC[C@@H](O)CC2=C[C@H](C)OC2=O)O1` [ANNONACINONE]: the EC50 stood at 1 µg/mL (≈ 1.68 µM) in [4] and 0.1 µg/mL (≈ 0.168 µM) in data set [5]. In [7], this compound came in with an ED50 of 1 ×10⁻⁶ ug/ml.

For the compound `CCCCCCCCC[C@@H](O)[C@@H](O)[C@@H]1CC[C@@H]([C@@H]2CC[C@@H]([C@@H](O)CCCCCCCCCCCCC3=CC(C)OC3=O)O2)O1` (stereo not given in full) [ROLLINICIN], the ED50 in data set [7] is given as 2.9 ×10⁻⁸ ug/ml.

In data set [21], `CCCCCCCCCC[C@@H](O)[C@@H]1CC[C@H]([C@H]2CC[C@@H]([C@@H](O)CCCCCCCCCC[C@H](O)CC3=C[C@@H](C)OC3=O)O2)O1` [ROLLINIASTATIN 1] registered a T/C of 128%. Also, the ED50 in data set [7] is recorded as 4.5 ×10⁻⁵ ug/ml.

A word on the LC50: it is the concentration lethal to half of the exposed cells or organisms. Higher therefore signals a less lethal substance. Broadly, the T/C is the result in the treated group divided by that in the control group, in per cent. In general, IC50 refers to the point on the concentration scale where inhibition reaches its midpoint. Broadly, the IC90 is the point of the concentration-response curve where the effect stands at 90%. Lower therefore signals greater potency.

Values taken from ChEMBL document CHEMBL1151144, “Annonaceous acetogenins: a review” (J Nat Prod, 1990).
